Reference: publication PMC6340895 (Protein & Cell, 2019)
pIC50: −log10 of the molar value.

How the values were obtained:
[1] = test system: LASV; conditions: cited from earlier work
[2] = in vitro
[3] = test system: pseudotype of GTOV, JUNV, MACV, SABV, CHAPV, LCMV, LUJV, MOPV, EBOV, and MARV; assay type: cell-based
[4] = test system: SABVpv; assay: organism not typed; assay type: cell-based, Sabiá virus (SABV); conditions: read-out: SABVpv IC50
[5] = test system: CHAPVpv; assay: microbe, parasite or virus in culture; assay type: cell-based, Chapare virus (CHAPV); conditions: Mammarenavirus chapareense, read-out: CHAPVpv IC50
[6] = test system: TfR1; assay type: cell-based
[7] = test system: JUNVpv; assay: organism not typed; assay type: cell-based, Junín virus (JUNV); conditions: read-out: JUNVpv IC50
[8] = test system: pseudotype of NW pathogenic arenaviruses; assay type: cell-based

Structure (SMILES) | CC50 [2] [µM] | also measured
C/C(=N\NC(=O)C1CC1c1ccccc1)c1ccc(NC(=O)c2ccco2)cc1 (stereo not shown) [ST-161] | – | Antiviral specificity [1]: LASV specific
C/C(=N\NC(=O)CCc1ccccc1)c1ccc(NC(=O)c2ccco2)cc1 [compound 3, O=C(CCC1=CC=CC=C1)N/N=C(C)/C2=CC=C(NC(C3=CC=CO3)=O)C=C2] | > 30 | –
C/C(=N\NC(=O)Cc1ccccc1)c1ccc(NC(=O)c2ccco2)cc1 [compound 7, O=C(CC1=CC=CC=C1)N/N=C(C)/C2=CC=C(NC(C3=CC=CO3)=O)C=C2] | > 30 | –
C/C(=N\NC(=O)Cc1ccc(Cl)cc1Cl)c1ccc(NC(=O)c2ccco2)cc1 [compound 8, O=C(CC1=C(Cl)C=C(Cl)C=C1)N/N=C(C)/C2=CC=C(NC(C3=CC=CO3)=O)C=C2] | > 30 | –
C/C(=N\NC(=O)CCc1ccc(C)cc1)c1ccc(NC(=O)c2ccco2)cc1 [compound 9, O=C(CCC1=CC=C(C)C=C1)N/N=C(C)/C2=CC=C(NC(C3=CC=CO3)=O)C=C2] | > 30 | –
C/C(=N\NC(=O)CCc1ccccc1F)c1ccc(NC(=O)c2ccco2)cc1 [compound 10, O=C(CCC1=C(F)C=CC=C1)N/N=C(C)/C2=CC=C(NC(C3=CC=CO3)=O)C=C2] | > 30 | –
C/C(=N\NC(=O)CCc1ccccc1C)c1ccc(NC(=O)c2ccco2)cc1 [compound 20, O=C(CCC1=C(C)C=CC=C1)N/N=C(C)/C2=CC=C(NC(C3=CC=CO3)=O)C=C2] | > 30 | –
C/C(=N\NC(=O)CCc1cccc(C)c1)c1ccc(NC(=O)c2ccco2)cc1 [compound 21, O=C(CCC1=CC(C)=CC=C1)N/N=C(C)/C2=CC=C(NC(C3=CC=CO3)=O)C=C2] | > 30 | Antiviral specificity across pseudotype panel [3]: largely maintained LASV specificity
COc1ccc(CCC(=O)N/N=C(\C)c2ccc(NC(=O)c3ccco3)cc2)cc1 [compound 22, O=C(CCC1=CC=C(OC)C=C1)N/N=C(C)/C2=CC=C(NC(C3=CC=CO3)=O)C=C2] | > 30 | –
C/C(=N\NC(=O)CCCc1ccc(C)cc1)c1ccc(NC(=O)c2ccco2)cc1 [compound 23, O=C(CCCC1=CC=C(C)C=C1)N/N=C(C)/C2=CC=C(NC(C3=CC=CO3)=O)C=C2] | > 30 | –
C/C(=N\NC(=O)CCc1ccc([N+](=O)[O-])cc1)c1ccc(NC(=O)c2ccco2)cc1 [compound 24, O=C(CCC1=CC=C([N+]([O-])=O)C=C1)N/N=C(C)/C2=CC=C(NC(C3=CC=CO3)=O)C=C2] | > 30 | –
C/C(=N\NC(=O)CCc1cccc([N+](=O)[O-])c1)c1ccc(NC(=O)c2ccco2)cc1 [compound 25, O=C(CCC1=CC([N+]([O-])=O)=CC=C1)N/N=C(C)/C2=CC=C(NC(C3=CC=CO3)=O)C=C2] | > 30 | –
C/C(=N\NC(=O)CCc1ccc(F)cc1)c1ccc(NC(=O)c2ccco2)cc1 [compound 26, O=C(CCC1=CC=C(F)C=C1)N/N=C(C)/C2=CC=C(NC(C3=CC=CO3)=O)C=C2] | > 30 | –
C/C(=N\NC(=O)CCCCc1ccccc1)c1ccc(NC(=O)c2ccco2)cc1 [compound 27, O=C(CCCCC1=CC=CC=C1)N/N=C(C)/C2=CC=C(NC(C3=CC=CO3)=O)C=C2] | > 30 | –
COc1ccc(CCC(=O)N/N=C(\C)c2ccc(NC(=O)c3ccco3)cc2)c(OC)c1 [compound 28, O=C(CCC1=C(OC)C=C(OC)C=C1)N/N=C(C)/C2=CC=C(NC(C3=CC=CO3)=O)C=C2] | > 30 | –
C/C(=N\NC(=O)CCc1ccc(Br)cc1)c1ccc(NC(=O)c2ccco2)cc1 [compound 29, O=C(CCC1=CC=C(Br)C=C1)N/N=C(C)/C2=CC=C(NC(C3=CC=CO3)=O)C=C2] | > 30 | Antiviral specificity across pseudotype panel [3]: largely maintained LASV specificity
C/C(=N\NC(=O)CCc1ccccc1C(F)(F)F)c1ccc(NC(=O)c2ccco2)cc1 [compound 30, O=C(CCC1=C(C(F)(F)F)C=CC=C1)N/N=C(C)/C2=CC=C(NC(C3=CC=CO3)=O)C=C2] | > 30 | –
COc1ccc(CC(=O)N/N=C(\C)c2ccc(NC(=O)c3ccco3)cc2)cc1 [compound 54, O=C(CC1=CC=C(OC)C=C1)N/N=C(C)/C2=CC=C(NC(C3=CC=CO3)=O)C=C2] | > 30 | –
C/C(=N\NC(=O)CCCc1ccccc1)c1ccc(NC(=O)c2ccco2)cc1 [compound 56, O=C(CCCC1=CC=CC=C1)N/N=C(C)/C2=CC=C(NC(C3=CC=CO3)=O)C=C2] | > 30 | –
C/C(=N\NC(=O)CCc1ccc(C(C)(C)C)cc1)c1ccc(NC(=O)c2ccco2)cc1 [compound 57, O=C(CCC1=CC=C(C(C)(C)C)C=C1)N/N=C(C)/C2=CC=C(NC(C3=CC=CO3)=O)C=C2] | > 30 | pIC50 [4]: 6.61; pIC50 [5]: 7.05; Cell surface expression of TfR1 [6]: did not down-regulate; pIC50 [7]: 7.02; Effect on binding of NW pathogenic viruses [8]: no effect
Cc1ccc(CCC(=O)CCC(C)c2ccc(NC(=O)c3ccco3)cc2)cc1 (stereo not shown) [compound 72] | – | Antiviral specificity across pseudotype panel [3]: largely maintained LASV specificity
